Experimental findings from patent US9724351B2, “Compounds for the treatment of paramoxyvirus viral infections” (priority 2012, dated 2017) are described below.

pEC50: −log10 of the molar value. Some results are limits rather than exact numbers.

Data set [1] concerns Respiratory Syncytial Virus (RSV) long strain (ATCC#VR-26). In words: RSV Antiviral Assay (CPE reduction assay). As to conditions: human respiratory syncytial virus, 120 h; HEp-2 cells infected with RSV long strain, 5 days, CCK-8 readout; bins (Table 2: less than 1 μM; Table 3: equal to or higher than 1 μM and less than 50 μM); read-out: 50% effective concentration (EC50). The format is cell-based. A digest of the protocol:
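HEp-2 cells infected with 100 TCID50 RSV long strain per well, compounds from 100 μM or 1 μM in 9-point ⅓ dilutions, duplicates, 1% DMSO. After 5 days at 37 °C, viable cells measured by CCK-8 (A450, 630 nm background); EC50 by regression on mean O.D.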

Data set [2] in a line: Cytotoxicity Determination. The data set is classed as cell-based. To be noted: human, HEp-2 cells, without addition of virus, CCK-8 readout, bins (Table 4: greater than 100 μM; Table 5: equal to or less than 100 μM and greater than 10 μM), read-out: 50% cytotoxicity concentration (CC50). A digest of the protocol:
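Uninfected cells were exposed to compounds in duplicate over a 7-point ½ dilution series starting at 100 μM final, for 5 days at 37 °C, 5% CO2. CCK-8 was then added for 3-4 h, and CC50 was calculated from optical density.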

On to `COc1cc(C(=O)NCC(=O)c2ccc(OC)c(-c3ccc(F)c(Cl)c3)n2)ccc1OC1COC1` [Compound 1312], for which, in data set [1], the pEC50 is > 6.00. In data set [2], the CC50 at 5 days is > 100 µM.
The like results for `CNCCOc1ccc(C(=O)NCC(=O)c2ccc(OC)c(-c3ccc(F)c(Cl)c3)n2)cc1OC` [Compound 1313] were, in that order, 4.30 to 6.00 and 10 to 100 µM.
On to `COc1cc(C(=O)NCC(=O)c2ccc(OC)c(-c3ccc(F)c(Cl)c3)n2)ccc1OCCN(C)C` [Compound 1314], for which the pEC50 in data set [1] was 4.30 to 6.00. The CC50 at 5 days in data set [2] was 10 to 100 µM.
The like results for `COc1cc(C(=O)NCC(=O)c2ccc(OC)c(-c3ccc(F)c(Cl)c3)n2)ccc1OCC(C)N` (centres unmarked) [Compound 1315] were, in that order, 4.30 to 6.00 and 10 to 100 µM.
On the same counts, the results for `COc1cc(C(=O)NCC(=O)c2ccc(OC)c(-c3ccc(F)c(Cl)c3)n2)ccc1OCC(N)=O` [Compound 1316] are > 6.00 and > 100 µM.
On the same counts, the results for `COCCOc1ccc(C(=O)NCC(=O)c2ccc(OC)c(-c3ccc(F)c(Cl)c3)n2)cc1C` [Compound 1317] are 4.30 to 6.00 and > 100 µM.
Consider `COc1cc(C(=O)NCC(=O)c2ccc(OC)c(-c3ccc(F)c(Cl)c3)n2)ccc1OCC(C)(C)O` [Compound 1319], for which, in data set [1], the pEC50 is > 6.00. Further, in data set [2], the CC50 at 5 days is > 100 µM.
On the same counts, the results for `CCN(CC)c1ccc(C(=O)NCC(=O)c2ccc(OC)c(-c3ccc(F)c(Cl)c3)n2)cc1` [Compound 1320] are 4.30 to 6.00 and > 100 µM.
On the same counts, the results for `CNC(=O)COc1ccc(C(=O)NCC(=O)c2ccc(OC)c(-c3ccc(F)c(Cl)c3)n2)cc1OC` [Compound 1321] are 4.30 to 6.00 and 10 to 100 µM.
The like results for `COc1cc(C(=O)NCC(=O)c2ccc(OC)c(-c3ccc(F)c(Cl)c3)n2)ccc1OCC(=O)N(C)C` [Compound 1322] were, in that order, > 6.00 and > 100 µM.
Take `COCc1ccc(C(=O)NCC(=O)c2ccc(OC)c(-c3ccc(F)c(Cl)c3)n2)cc1OC` [Compound 1323]: in data set [1], the pEC50 was > 6.00. For the same molecule, the CC50 at 5 days in data set [2] fell in the range of 10 to 100 µM.
As for `COc1cc(C(=O)NCC(=O)c2ccc(OC)c(-c3ccc(F)c(C)c3)n2)ccc1OCCO` [Compound 1325], in data set [1], the pEC50 is > 6.00. The CC50 at 5 days in data set [2] was > 100 µM.
On the same counts, the results for `COc1cc(C(=O)NCC(=O)c2ccc(OC)c(-c3ccc(F)c(CF)c3)n2)ccc1OCCO` [Compound 1326] are > 6.00 and > 100 µM.
The like results for `COc1cc(C(=O)NCC(=O)c2ccc(OC)c(-c3ccc(F)c(C(F)F)c3)n2)ccc1OCCO` [Compound 1327] were, in that order, > 6.00 and > 100 µM.
For the molecule `COc1cc(C(=O)NCC(=O)c2ccc(OC)c(-c3ccc(F)c(O)c3)n2)ccc1OCCO` [Compound 1328], the pEC50 in data set [1] was > 6.00. Besides, in data set [2], the CC50 at 5 days is > 100 µM.
On to `COc1cc(-c2nc(C(=O)CNC(=O)c3ccc(OCCO)c(OC)c3)ccc2OC)ccc1F` [Compound 1329], for which the pEC50 in data set [1] was > 6.00. Besides, in data set [2], the CC50 at 5 days is > 100 µM.
The like results for `COc1cc(C(=O)NCC(=O)c2ccc(OC)c(-c3ccc(Cl)nc3)n2)ccc1OCCO` [Compound 1330] were, in that order, 4.30 to 6.00 and > 100 µM.
Regarding `COCCc1ccc(C(=O)NCC(=O)c2ccc(OC)c(-c3ccc(F)c(Cl)c3)n2)cc1OC` [Compound 1331], in data set [1], the pEC50 is 4.30 to 6.00. In addition, the CC50 at 5 days in data set [2] was in the range of 10 to 100 µM.
Take `COc1cc(C(=O)NCC(=O)c2ccc(OC)c(-c3ccc(F)c(Cl)c3)n2)ccc1OCc1cnc[nH]1` [Compound 1332]: the pEC50 in data set [1] is > 6.00. In addition, the CC50 at 5 days in data set [2] was 10 to 100 µM.
The like results for `COc1cc(C(=O)NCC(=O)c2ccc(OC)c(-c3ccc(F)c(Br)c3)n2)ccc1OCc1cnc[nH]1` [Compound 1333] were, in that order, > 6.00 and 10 to 100 µM.
The like results for `COCCc1ccc(C(=O)NCC(=O)c2ccc(OC)c(-c3ccc(F)c(Br)c3)n2)cc1OC` [Compound 1334] were, in that order, > 6.00 and 10 to 100 µM.
On the same counts, the results for `COc1ccc(C(=O)NCC(=O)c2ccc(O)c(-c3csc4c(F)cccc34)n2)cc1OC` [Compound 1335] are > 6.00 and 10 to 100 µM.
In the case of `COc1ccc(C(=O)NCC(=O)c2ccc(OC)c(-c3csc4c(F)cccc34)n2)cc1OC` [Compound 1336], the pEC50 in data set [1] is > 6.00. Further, the CC50 at 5 days in data set [2] was > 100 µM.
As to `COc1ccc(C(=O)NCC(=O)c2c[nH]cc(-c3csc4c(F)cccc34)c2=O)cc1OC` [Compound 1337], in data set [1], the pEC50 was 4.30 to 6.00. In data set [2], the CC50 at 5 days was > 100 µM.
On the same counts, the results for `COc1ccc(C(=O)NCC(=O)c2cn(C)cc(-c3csc4c(F)cccc34)c2=O)cc1OC` [Compound 1338] are 4.30 to 6.00 and 10 to 100 µM.
The like results for `COc1ccc(C(=O)NC(C)(C)C(=O)c2cccc(-c3csc4c(F)cccc34)n2)cc1OC` [Compound 1340] were, in that order, 4.30 to 6.00 and > 100 µM.
With `COc1ccc(C(=O)NCC(=O)c2nc(-c3csc4c(F)cccc34)cc(C(C)C)c2OC)cc1OC` [Compound 1341], in data set [1], the pEC50 was 4.30 to 6.00. Further, the CC50 at 5 days in data set [2] is > 100 µM.
On the same counts, the results for `COc1cc(C(=O)NCC(=O)c2ccc(OC)c(-c3c[nH]c4c(F)cccc34)n2)ccc1OCCO` [Compound 1342] are > 6.00 and > 100 µM.
On the same counts, the results for `COc1cc(C(=O)NCC(=O)c2ccc(OC)c(-c3coc4c(F)cccc34)n2)ccc1OCCO` [Compound 1343] are > 6.00 and > 100 µM.
For the molecule `COc1cc(C(=O)NCC(=O)c2ccc(OC)c(C3=CS(=O)(=O)c4c(F)cccc43)n2)ccc1OCCO` [Compound 1344], the pEC50 in data set [1] is 4.30 to 6.00. In data set [2], the CC50 at 5 days lay within 10 to 100 µM.
The like results for `COc1cc(C(=O)NCC(=O)c2ccc(OC)c(-c3cnn4ccccc34)n2)ccc1OCCO` [Compound 1345] were, in that order, 4.30 to 6.00 and > 100 µM.
On the same counts, the results for `COc1cc(C(=O)NCC(=O)c2ccc(OC)c(-c3n[nH]c4ccccc34)n2)ccc1OCCO` [Compound 1346] are 4.30 to 6.00 and > 100 µM.
On the same counts, the results for `COc1ccc(C(=O)NCC(=O)c2ccc(-c3csc4c(F)cccc34)o2)cc1OC` [Compound 1351] are 4.30 to 6.00 and > 100 µM.
On to `COc1ccc(C(=O)NCC(=O)c2ncc(-c3csc4c(F)cccc34)[nH]2)cc1OC` [Compound 1352], for which, in data set [1], the pEC50 is 4.30 to 6.00. Further, in data set [2], the CC50 at 5 days is 10 to 100 µM.
On the same counts, the results for `COc1ccc(C(=O)NCC(=O)c2nc(-c3csc4c(F)cccc34)cn2C)cc1OC` [Compound 1353] are 4.30 to 6.00 and > 100 µM.
The like results for `CCCn1cc(-c2csc3c(F)cccc23)nc1C(=O)CNC(=O)c1ccc(OC)c(OC)c1` [Compound 1355] were, in that order, 4.30 to 6.00 and 10 to 100 µM.
The like results for `COc1ccc(C(=O)NCC(=O)c2nc(-c3csc4c(F)cccc34)cn2CC(C)C)cc1OC` [Compound 1356] were, in that order, 4.30 to 6.00 and > 100 µM.
Regarding `COc1ccc(C(=O)NCC(=O)c2nc(-c3csc4c(F)cccc34)c(C)n2C)cc1OC` [Compound 1358], in data set [1], the pEC50 was > 6.00. The CC50 at 5 days in data set [2] was 10 to 100 µM.
On the same counts, the results for `COc1cc(C(=O)CNC(=O)c2ccc(OC)c(OC)c2)nc(-c2ccc(O)cc2)c1` [Compound 1401] are 4.30 to 6.00 and 10 to 100 µM.
`COc1cc(C(=O)CNC(=O)c2ccc(OC)c(OC)c2)nc(-c2ccc3c(c2)OCCO3)c1` [Compound 1402]: the pEC50 in data set [1] was 4.30 to 6.00. For the same molecule, the CC50 at 5 days in data set [2] is > 100 µM.
As to `COc1cc(C(=O)CNC(=O)c2ccc(OC)c(OC)c2)nc(-c2ccc3[nH]nnc3c2)c1` [Compound 1403], the pEC50 in data set [1] was 4.30 to 6.00. Further, in data set [2], the CC50 at 5 days is > 100 µM.
The like results for `COc1cc(C(=O)CNC(=O)c2ccc(OC)c(OC)c2)nc(-c2ccc(-c3c[nH]nn3)cc2)c1` [Compound 1405] were, in that order, 4.30 to 6.00 and 10 to 100 µM.
Take `COc1ccc(C(=O)NCC(=O)c2ccc(OC)c(-c3c(C)sc4cccnc34)n2)cc1OC` [Compound 1502]: in data set [1], the pEC50 was 4.30 to 6.00. Also, the CC50 at 5 days in data set [2] was > 100 µM.
On the same counts, the results for `COc1ccc(C(=O)NCC(=O)c2ccc(OC)c(-c3ccc4cnn(C)c4c3)n2)cc1OC` [Compound 1503] are 4.30 to 6.00 and 10 to 100 µM.
The like results for `CNC(=O)c1ccc(-c2nc(C(=O)CNC(=O)c3ccc(OC)c(OC)c3)ccc2OC)cc1` [Compound 1504] were, in that order, 4.30 to 6.00 and > 100 µM.
On the same counts, the results for `COc1ccc(C(=O)NCC(=O)c2ccc(OC)c(-c3ccc(C#N)cc3)n2)cc1OC` [Compound 1505] are > 6.00 and > 100 µM.
As for `COc1ccc(C(=O)NCC(=O)c2ccc(OC)c(-c3ccc(N4CCOCC4)cc3)n2)cc1OC` [Compound 1506], in data set [1], the pEC50 was 4.30 to 6.00. In data set [2], the CC50 at 5 days fell in the range of 10 to 100 µM.
The like results for `COc1ccc(C(=O)NCC(=O)c2ccc(OC)c(-c3ccc4ncccc4c3)n2)cc1OC` [Compound 1507] were, in that order, 4.30 to 6.00 and 10 to 100 µM.
The like results for `COc1ccc(C(=O)NCC(=O)c2ccc(OC)c(-c3csc4ccccc34)n2)cc1OC` [Compound 1508] were, in that order, > 6.00 and > 100 µM.
